ChEMBL document CHEMBL2029247, “Synthesis and structure-activity relationship of aminopyridines with substituted benzoxazoles as c-Met kinase inhibitors” (Bioorg Med Chem Lett, 2012)
pIC50: −log10 of the molar value.

Legend:
[1] = target: Hepatocyte growth factor receptor (Homo sapiens, UniProt P08581); assay: Inhibition of recombinant c-Met by time resolved-fluorescence resonance energy transfer analysis
[2] = target: T1, Receptor-type tyrosine-protein kinase FLT3 (Homo sapiens, UniProt P36888); assay: Inhibition of recombinant FLT3 by time resolved-fluorescence resonance energy transfer analysis
T1 sequence (P36888 whole entry): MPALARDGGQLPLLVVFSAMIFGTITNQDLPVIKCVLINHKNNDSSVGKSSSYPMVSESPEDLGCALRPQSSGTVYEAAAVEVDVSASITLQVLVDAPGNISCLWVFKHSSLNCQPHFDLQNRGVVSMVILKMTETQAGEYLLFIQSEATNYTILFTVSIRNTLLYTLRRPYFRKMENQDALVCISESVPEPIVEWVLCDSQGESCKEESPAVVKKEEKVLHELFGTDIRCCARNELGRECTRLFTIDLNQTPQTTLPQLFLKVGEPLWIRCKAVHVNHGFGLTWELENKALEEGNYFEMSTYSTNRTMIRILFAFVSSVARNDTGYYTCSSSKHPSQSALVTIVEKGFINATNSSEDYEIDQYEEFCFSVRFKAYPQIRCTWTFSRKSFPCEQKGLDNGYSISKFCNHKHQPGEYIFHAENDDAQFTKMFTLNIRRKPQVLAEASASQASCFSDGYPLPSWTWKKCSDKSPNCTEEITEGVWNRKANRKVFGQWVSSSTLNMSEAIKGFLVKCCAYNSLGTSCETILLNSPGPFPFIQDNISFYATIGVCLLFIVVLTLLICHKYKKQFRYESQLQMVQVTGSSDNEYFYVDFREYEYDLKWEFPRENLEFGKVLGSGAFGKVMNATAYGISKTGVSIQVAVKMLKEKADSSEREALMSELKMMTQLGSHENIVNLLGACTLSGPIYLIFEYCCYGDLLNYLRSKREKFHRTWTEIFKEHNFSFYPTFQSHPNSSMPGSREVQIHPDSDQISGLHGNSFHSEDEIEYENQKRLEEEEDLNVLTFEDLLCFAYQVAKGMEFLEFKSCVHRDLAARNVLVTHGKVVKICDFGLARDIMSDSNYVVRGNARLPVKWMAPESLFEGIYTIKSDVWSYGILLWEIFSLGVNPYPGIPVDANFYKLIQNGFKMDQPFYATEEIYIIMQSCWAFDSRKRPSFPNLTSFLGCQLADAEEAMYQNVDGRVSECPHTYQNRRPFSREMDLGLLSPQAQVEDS

[3] = cells; conditions: Homo sapiens, Hs746T, 72 h
Description: Cytotoxicity against human Hs 746T cells after 72 hrs by WST-8 assay

[4] = target: T2, Aurora kinase A (Homo sapiens, UniProt O14965); assay: Inhibition of Aurora A
T2 sequence (O14965 whole entry): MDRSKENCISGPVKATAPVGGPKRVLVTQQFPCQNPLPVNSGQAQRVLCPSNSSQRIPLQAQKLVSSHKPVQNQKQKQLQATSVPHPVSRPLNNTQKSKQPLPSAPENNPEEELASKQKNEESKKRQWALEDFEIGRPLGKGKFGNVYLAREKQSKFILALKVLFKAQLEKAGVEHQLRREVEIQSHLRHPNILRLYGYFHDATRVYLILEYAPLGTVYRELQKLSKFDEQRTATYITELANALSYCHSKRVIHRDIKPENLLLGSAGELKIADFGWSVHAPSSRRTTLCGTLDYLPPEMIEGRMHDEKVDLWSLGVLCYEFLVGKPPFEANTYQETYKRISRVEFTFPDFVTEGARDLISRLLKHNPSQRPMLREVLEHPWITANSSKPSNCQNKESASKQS

[5] = target: Macrophage-stimulating protein receptor (Homo sapiens, UniProt Q04912); assay: Inhibition of Ron
[6] = target: Receptor-type tyrosine-protein kinase FLT3 (Homo sapiens, UniProt P36888, D835Y); assay: Inhibition of FLT3 D835Y mutant

Row | SMILES | pIC50 [1] | also measured
1 | CC(C)Nc1cccc2nc(-c3cc(-c4cnn(C5CCNCC5)c4)cnc3N)oc12 | 6.89 | 
2 | Nc1ncc(-c2cnn(C3CCN(CCO)CC3)c2)cc1-c1nc2ccc(F)cc2o1 | 7.05 | 
3 | CNc1ccc2oc(-c3cc(-c4cnn(C5CCNCC5)c4)cnc3N)nc2c1 | 6.80 | 
4 | Nc1ncc(-c2cnn(C3CCNCC3)c2)cc1-c1nc2cc(Cl)cc(F)c2o1 | 7.39 | 
5 | Nc1ccc2nc(-c3cc(-c4cnn(C5CCNCC5)c4)cnc3N)oc2c1 | 7.85 | pIC50 [2]: 8.44; pIC50 [3]: 5.43
6 | Nc1ncc(-c2cnn(C3CCNCC3)c2)cc1-c1nc2ccc(O)c(-c3cnccn3)c2o1 |  | pIC50 [3]: 6.74
7 | CC(=O)N1CCC(n2cc(-c3cnc(N)c(-c4nc5cc(O)c(C)cc5o4)c3)cn2)CC1 | 7.29 | 
8 | CC(=O)c1ccc2nc(-c3cc(-c4cnn(C5CCNCC5)c4)cnc3N)oc2c1 | 6.10 | 
9 | CC(=O)N1CCC(n2cc(-c3cnc(N)c(-c4nc5c(C)c(O)c(C)cc5o4)c3)cn2)CC1 | 7.55 | 
10 | CC(O)c1ccc2nc(-c3cc(-c4cnn(C5CCNCC5)c4)cnc3N)oc2c1 (stereo not drawn) | 6.89 | 
11 | Cn1cc(-c2cnc(N)c(-c3nc4ccc(Cl)cc4o3)c2)cn1 | 5.77 | 
12 | Cc1ccc(S(=O)(=O)NC(=O)Nc2ccc3nc(-c4cc(-c5cnn(C6CCNCC6)c5)cnc4N)oc3c2)cc1 | 7.35 | 
13 | CC(=O)N1CCC(n2cc(-c3cnc(N)c(-c4nc5ccc(Cl)cc5o4)c3)cn2)CC1 | 6.66 | 
14 | Nc1ncc(-c2cnn(C3CCNCC3)c2)cc1-c1nc2ccc(Oc3ccncn3)cc2o1 | 7.47 | 
15 | Nc1ncc(-c2cnn(C3CCNCC3)c2)cc1-c1nc2ccc(Oc3ncccn3)cc2o1 | 7.64 | 
16 | Nc1ncc(-c2cnn(C3CCNCC3)c2)cc1-c1nc2cc(Cl)ccc2o1 | 7.28 | 
17 | CN1CCC(n2cc(-c3cnc(N)c(-c4nc5ccc(F)cc5o4)c3)cn2)CC1 | 6.62 | 
18 | Nc1ncc(-c2cnn(C3CCNCC3)c2)cc1-c1nc2ccc(NS(=O)(=O)c3ccc(F)cc3)cc2o1 | 7.17 | 
19 | Nc1ncc(-c2cnn(C3CCNCC3)c2)cc1-c1nc2ccc(O)c(-c3cccnc3)c2o1 | 8.40 | 
20 | Nc1ncc(-c2cnn(CCO)c2)cc1-c1nc2cccc(-c3ccccn3)c2o1 | 7.28 | 
21 | Nc1ncc(-c2cnn(C3CCNCC3)c2)cc1-c1nc2ccc(O)c(-c3ccccc3)c2o1 | 7.32 | pIC50 [2]: 7.85; pIC50 [3]: 8.00
22 | Cc1cc2oc(-c3cc(-c4cnn(C5CCNCC5)c4)cnc3N)nc2cc1O |  | pIC50 [3]: 7.92
23 | CCc1cc2oc(-c3cc(-c4cnn(C5CCNCC5)c4)cnc3N)nc2cc1O |  | pIC50 [3]: 7.66
24 | Nc1ncc(-c2cnn(C3CCNCC3)c2)cc1-c1nc2cccc(-c3ccccn3)c2o1 |  | pIC50 [3]: 6.62
25 | CCCNc1ccc2nc(-c3cc(-c4cnn(C5CCNCC5)c4)cnc3N)oc2c1 | 6.82 | 
26 | Nc1ccc2oc(-c3cc(-c4cnn(C5CCNCC5)c4)cnc3N)nc2c1 | 7.25 | 
27 | Nc1ncc(-c2cnn(C3CCNCC3)c2)cc1-c1nc2ccc(Nc3ncccn3)cc2o1 | 7.20 | 
28 | Nc1ncc(-c2cnn(C3CCNCC3)c2)cc1-c1nc2ccc(-c3cc[nH]n3)cc2o1 | 6.68 | 

Continued, in another order:

Row | pIC50 [1] | SMILES | also measured
29 | 6.74 | Cc1cc2nc(-c3cc(-c4cnn(C5CCNCC5)c4)cnc3N)oc2cc1O | 
30 | 6.39 | Nc1ncc(-c2cnn(C3CCNCC3)c2)cc1-c1nc2ccc(Nc3ccc(F)cc3)cc2o1 | 
31 | 6.96 | Nc1ncc(-c2cnn(C3CCNCC3)c2)cc1-c1nc2cccc(O)c2o1 | 
32 | 7.55 | Nc1ncc(-c2cnn(C3CCNCC3)c2)cc1-c1nc2ccc(-c3cccnc3)cc2o1 | 
33 | 6.89 | Nc1ncc(-c2cnn(C3CCNCC3)c2)cc1-c1nc2ccc(NC(=O)Nc3ccccc3)cc2o1 | 
34 | 7.06 | CS(=O)(=O)Nc1ccc2nc(-c3cc(-c4cnn(C5CCNCC5)c4)cnc3N)oc2c1 | 
35 | 7.72 | Nc1ncc(-c2cnn(C3CCNCC3)c2)cc1-c1nc2ccc(O)cc2o1 | pIC50 [2]: 8.40; pIC50 [4]: 7.05; pIC50 [3]: 6.35; pIC50 [5]: 7.85; pIC50 [6]: 9.52
36 | 6.27 | CC(=O)Nc1ccc2oc(-c3cc(-c4cnn(C5CCNCC5)c4)cnc3N)nc2c1 [listing 1 of 2 here] | 
37 | 8.52 | Cc1cc2oc(-c3cc(-c4cnn(C5CCNCC5)c4)cnc3N)nc2c(C)c1O | 
38 | 9.70 | Cc1c(O)ccc2nc(-c3cc(-c4cnn(C5CCNCC5)c4)cnc3N)oc12 | pIC50 [2]: 7.47; pIC50 [3]: 7.46
39 | 6.27 | CC(=O)Nc1ccc2oc(-c3cc(-c4cnn(C5CCNCC5)c4)cnc3N)nc2c1 [listing 2 of 2 here] | 
40 | 7.66 | Nc1ncc(-c2cnn(C3CCNCC3)c2)cc1-c1nc2cc(O)ccc2o1 | 
41 | 7.11 | COc1ccc(-c2cccc3nc(-c4cc(-c5cnn(C6CCNCC6)c5)cnc4N)oc23)cc1 | 
42 | 7.85 | Cn1cc(-c2cnc(N)c(-c3nc4cccc(-c5ccccn5)c4o3)c2)cn1 | 
